Values joined by “and” are separate entries in the source; they are usually repeats but may differ in a detail not shown here. Equal values may be shown once.

Results on 35 compounds are retold here after the Deep4Chem optical property database.

The first data set in a line: solvent given as SMILES. Conditions: in C1CCCCC1.
`c1ccc(N(c2ccccc2)c2ccc3c(ccc4nc5ccc6cc(N(c7ccccc7)c7ccccc7)ccc6c5nc43)c2)cc1`: the emission maximum came out at 492 nm.

Still in this data set, the particulars now being: in C1CCOC1.
Consider `CCCCCCCC(=O)Oc1ccc2c3cccc4c(OC(=O)CCCCCCC)ccc(c5cccc1c52)c43`, for which the emission maximum was determined as 454.01 nm.

Turning to `FC(F)(F)c1ccc(/C=C/c2nc(/C=C/c3ccc(N(c4ccccc4)c4ccccc4)cc3)cc(/C=C/c3ccc(N(c4ccccc4)c4ccccc4)cc3)n2)cc1`, the emission maximum turned out to be 526 nm.

Turning to `C(=C(c1ccccc1)c1ccccc1)c1ccc(-c2ccc(C=C(c3ccccc3)c3ccccc3)cc2)cc1`, the emission maximum came out at 445 nm.

As to `CC(C)(C)c1ccc(-c2c(-c3ccc(N(c4ccccc4)c4ccccc4)cc3)cc(-c3ccc(N(c4ccccc4)c4ccccc4)cc3)c(-c3ccc(C(C)(C)C)cc3)c2-c2ccc(C(C)(C)C)cc2)cc1`, the emission maximum turned out to be 406 nm.

As to `Cc1cc(C)n2c1C=C1c3ccccc3C(c3[nH]c4ccccc4c3C)=[N+]1[B-]2(F)F`, the emission maximum is given as 628 nm.

With `c1ccc(N(c2ccccc2)c2ccc3c(ccc4nc5ccc6cc(N(c7ccccc7)c7ccccc7)ccc6c5nc43)c2)cc1`, the emission maximum is 552 nm.

Take `CC1=CC(C)=[N+]2C1=C(c1ccccc1)c1c(C)cc(C)n1[B-]2(F)F`: the emission maximum is 512 nm and 510 nm.

Staying with this data set, now noted: in CC#N.
In the case of `FC(F)(F)c1ccc(/C=C/c2nc(/C=C/c3ccc(N(c4ccccc4)c4ccccc4)cc3)cc(/C=C/c3ccc(N(c4ccccc4)c4ccccc4)cc3)n2)cc1`, the emission maximum was 600 nm.

Turning to `COc1ccc(-c2pc3ccccc3s2)cc1` (stereo unspecified), the emission maximum was found to be 445 nm.

`Cc1cc(C)n2c1C=C1c3ccccc3C(c3[nH]c4ccccc4c3C)=[N+]1[B-]2(F)F`: the emission maximum was found to be 623 nm.

Turning to `FC(F)(F)c1ccc(-c2nnc(-c3cc(-n4c5ccccc5c5ccccc54)c(-n4c5ccccc5c5ccccc54)cc3-c3nnc(-c4ccc(C(F)(F)F)cc4)o3)o2)cc1`, the emission maximum was 544.97 nm.

`C[n+]1ccc2c(ccc3c[n+](C)ccc32)c1`: the emission maximum is 407 nm.

In turn, `C[C@]12SC(=O)C=C1c1nc(-c3ccc(Cl)cc3Cl)[nH]c1C1=CC(=O)S[C@@]12C` registered an emission maximum of 500 nm.

For the compound `Nc1nc2ccc(F)cc2[n+]([O-])n1`, the emission maximum is reported as 491 nm.

As to `CC1=CC(C)=[N+]2C1=C(c1ccccc1)c1c(C)cc(C)n1[B-]2(F)F`, the emission maximum is listed as 508 nm.

The data set is the same for the next values; noted with them: in CC(=O)C(C)(C)C.
`CC1=CC(C)=[N+]2C1=C(c1ccccc1)c1c(C)cc(C)n1[B-]2(F)F` had an emission maximum of 511 nm.

The same data set, now with this note: in CC(C)=O.
For `FC(F)(F)c1ccc(/C=C/c2nc(/C=C/c3ccc(N(c4ccccc4)c4ccccc4)cc3)cc(/C=C/c3ccc(N(c4ccccc4)c4ccccc4)cc3)n2)cc1`, the emission maximum is recorded as 567 nm.

Consider `CC1=CC(C)=[N+]2C1=C(c1ccccc1)c1c(C)cc(C)n1[B-]2(F)F`, for which the emission maximum stood at 509 nm.

Still in this data set, the particulars now being: in CCCCCC.
With `Cc1cc(C)n2c1C=C1c3ccccc3C(c3[nH]c4ccccc4c3C)=[N+]1[B-]2(F)F`, the emission maximum was determined as 626 nm.

In turn, `CC1=CC(C)=[N+]2C1=C(c1ccccc1)c1c(C)cc(C)n1[B-]2(F)F` gave an emission maximum of 511 nm.

Staying with this data set, now noted: in CCCCCCC.
`FC(F)(F)c1ccc(/C=C/c2nc(/C=C/c3ccc(N(c4ccccc4)c4ccccc4)cc3)cc(/C=C/c3ccc(N(c4ccccc4)c4ccccc4)cc3)n2)cc1` showed an emission maximum of 467 nm.

The same data set, now with this note: in CCO.
`COC(=O)CNC(=O)CCNc1cccc2ccccc12` returned an emission maximum of 417 nm.

Regarding `CNc1cc2nc3cc(Br)c(Br)cc3nc2cc1NC`, the emission maximum came to 542 nm.

Still in this data set, the particulars now being: in CCOC(C)=O.
For `CCn1ncc2c3c(C#N)c4c5ccccc5n(CC)c4nc3ccc21`, the emission maximum amounted to 476 nm.

On to `CC1=CC(C)=[N+]2C1=C(c1ccccc1)c1c(C)cc(C)n1[B-]2(F)F`, for which the emission maximum came out at 510 nm.

The same data set, now with this note: in CN(C)C=O.
`c1ccc(N(c2ccccc2)c2ccc3c(ccc4nc5ccc6cc(N(c7ccccc7)c7ccccc7)ccc6c5nc43)c2)cc1` had an emission maximum of 626 nm.

The same data set, now with this note: in CO.
Consider `O=C(O)C1=C/C(=C/C=[N+]2/c3cc(O)c(C[C@@H]4O[C@H](CO)[C@@H](O)C(O)[C@H]4O)cc3C[C@H]2C(=O)O)C[C@@H](C(=O)O)N1` (stereo partly specified), for which the emission maximum is 611 nm.

The compound `Cc1cc(C)n2c1C=C1c3ccccc3C(c3[nH]c4ccccc4c3C)=[N+]1[B-]2(F)F` had an emission maximum of 624 nm.

As to `CC1=CC(C)=[N+]2C1=C(c1ccccc1)c1c(C)cc(C)n1[B-]2(F)F`, the emission maximum is 509 nm and 510 nm.

The same data set, now with this note: in CS(C)=O.
Compound `FC(F)(F)c1ccc(/C=C/c2nc(/C=C/c3ccc(N(c4ccccc4)c4ccccc4)cc3)cc(/C=C/c3ccc(N(c4ccccc4)c4ccccc4)cc3)n2)cc1` returned an emission maximum of 599 nm.

`CCCn1c(-c2cc(-c3nc4ccccc4n3CCC)cc(-c3nc4ccccc4n3CCC)c2)nc2ccccc21` yielded an emission maximum of 381 nm.

Consider `CC(C)(C)OC(=O)COc1ccc2c(c1)oc(=O)c1c(=O)oc3ccccc3c12`, for which the emission maximum is reported as 449 nm.

`N#CC1=C(N)n2c(=O)c3ccccc3c(=O)n2C1c1cccs1` (stereo unspecified): the emission maximum is listed as 446 nm.

The data set is the same for the next values; noted with them: in Cc1ccccc1.
Compound `Cc1cc(C)c(B(c2ccc(-c3ccc4ccc5cccc6ccc3c4c56)cc2)c2c(C)cc(C)cc2C)c(C)c1` showed an emission maximum of 431 nm.

In the case of `CC(C)(C)c1ccccc1N(c1ccccc1)c1ccc(S(=O)(=O)c2ccc(S(=O)(=O)c3ccc(N(c4ccccc4)c4ccccc4C(C)(C)C)cc3)cc2)cc1`, the emission maximum stood at 444 nm.

In turn, `CCCCCCCC(=O)Oc1ccc2c3cccc4c(OC(=O)CCCCCCC)ccc(c5cccc1c52)c43` came in with an emission maximum of 456.99 nm.

Regarding `FC(F)(F)c1ccc(/C=C/c2nc(/C=C/c3ccc(N(c4ccccc4)c4ccccc4)cc3)cc(/C=C/c3ccc(N(c4ccccc4)c4ccccc4)cc3)n2)cc1`, the emission maximum is recorded as 486 nm.

The compound `CCCCOC(=O)c1cc(Cl)c2c3c(Cl)cc4c5c(cc(Cl)c(c6c(Cl)cc(C(=O)OCCCC)c1c26)c53)C(=O)N(c1c(C(C)C)cccc1C(C)C)C4=O` had an emission maximum of 530 nm.

Turning to `Cc1cc(C)n2c1C=C1c3ccccc3C(c3[nH]c4ccccc4c3C)=[N+]1[B-]2(F)F`, the emission maximum is 636 nm.

The compound `FC(F)(F)c1ccc(-c2nnc(-c3cc(-n4c5ccccc5c5ccccc54)c(-n4c5ccccc5c5ccccc54)cc3-c3nnc(-c4ccc(C(F)(F)F)cc4)o3)o2)cc1` gave an emission maximum of 487 nm.

The compound `c1ccc(N(c2ccccc2)c2ccc3c(ccc4nc5ccc6cc(N(c7ccccc7)c7ccccc7)ccc6c5nc43)c2)cc1` gave an emission maximum of 512 nm.

The compound `N#Cc1cc(C#N)c(-c2cc(-n3c4ccccc4c4ccccc43)cc(-n3c4ccccc4c4ccccc43)c2)cc1-c1cc(-n2c3ccccc3c3ccccc32)cc(-n2c3ccccc3c3ccccc32)c1` returned an emission maximum of 372 nm.

With `CC1=CC(C)=[N+]2C1=C(c1ccccc1)c1c(C)cc(C)n1[B-]2(F)F`, the emission maximum worked out at 516 nm.

The data set is the same for the next values; noted with them: in ClC(Cl)(Cl)Cl.
With `CCCCCCCC(=O)Oc1ccc2c3cccc4c(OC(=O)CCCCCCC)ccc(c5cccc1c52)c43`, the emission maximum was found to be 456.99 nm.

Staying with this data set, now noted: in ClC(Cl)Cl.
Compound `Cc1ccc(/C2=c3\cc/c(o3)=C(\c3ccc(C)cc3)c3ccc([nH]3)-c3ccc4n3[P-](=O)(=O)[N+]3=C(C=CC3=C4c3cccs3)c3ccc2[nH]3)cc1` showed an emission maximum of 736 nm.

For `CCCCCCCC(=O)Oc1ccc2c3cccc4c(OC(=O)CCCCCCC)ccc(c5cccc1c52)c43`, the emission maximum worked out at 456.01 nm.

Compound `O=Cc1ccc(C#CC(C#Cc2ccc(C=O)s2)=Cc2ccc(C=C(C#Cc3ccc(C=O)s3)C#Cc3ccc(C=O)s3)cc2)s1` returned an emission maximum of 533 nm.

The same data set, now with this note: in ClCCl.
In turn, `N#Cc1ccc(-n2c(-c3ccc(-c4ccc(N(c5ccccc5)c5ccccc5)cc4)s3)nc3c4ccccc4c4ccccc4c32)c2ccccc12` showed an emission maximum of 408 nm.

On to `Cc1cc(-c2ccc3ccccc3c2)cc(C)[o+]1`, for which the emission maximum is listed as 544 nm.

`CCCCCCCC(=O)Oc1ccc2c3cccc4c(OC(=O)CCCCCCC)ccc(c5cccc1c52)c43` yielded an emission maximum of 455 nm.

The compound `FC(F)(F)c1ccc(/C=C/c2nc(/C=C/c3ccc(N(c4ccccc4)c4ccccc4)cc3)cc(/C=C/c3ccc(N(c4ccccc4)c4ccccc4)cc3)n2)cc1` came in with an emission maximum of 554 nm.

In turn, `COc1ccccc1C1=[N+]2C(=C(c3ccccc3)c3c4c(c(-c5ccccc5OC)n3[B-]2(F)F)C2C=CC4CC2)C2=C1C1C=CC2CC1` (stereo unspecified) returned an emission maximum of 587 nm.

Compound `c1ccc(N2N=C(c3cccc4ccccc34)CC2c2ccc3ccc4cccc5ccc2c3c45)cc1` (stereo unspecified) had an emission maximum of 455 nm.

In turn, `CC(C)[Si](C#Cc1c2cc3ccccc3cc2c(C#Cc2ccc(F)cc2)c2cc3ccccc3cc12)(C(C)C)C(C)C` showed an emission maximum of 660 nm.

For `Cc1cc(C)n2c1C=C1c3ccccc3C(c3[nH]c4ccccc4c3C)=[N+]1[B-]2(F)F`, the emission maximum is on record as 631 nm.

`CCCCCCCCOc1cc(/C=C/c2cc(OCCCCCCCC)c(/C=C/c3cc(OCCCCCCCC)c(/C=C/c4ccncc4)cc3OCCCCCCCC)cc2OCCCCCCCC)c(OCCCCCCCC)cc1/C=C/c1ccncc1` gave an emission maximum of 570 nm.

In turn, `FC(F)(F)c1ccc(-c2nnc(-c3cc(-n4c5ccccc5c5ccccc54)c(-n4c5ccccc5c5ccccc54)cc3-c3nnc(-c4ccc(C(F)(F)F)cc4)o3)o2)cc1` had an emission maximum of 519.92 nm.

`c1ccc(N(c2ccccc2)c2ccc3c(ccc4nc5ccc6cc(N(c7ccccc7)c7ccccc7)ccc6c5nc43)c2)cc1` registered an emission maximum of 576 nm.

In turn, `CC(C)(C)OC(=O)COc1ccc2c(c1)oc(=O)c1c(=O)oc3ccccc3c12` displayed an emission maximum of 440 nm.

As to `CC1=CC(C)=[N+]2C1=C(c1ccccc1)c1c(C)cc(C)n1[B-]2(F)F`, the emission maximum was determined as 513 nm.

Compound `C(=C\c1cc(-c2ccc3ccccc3c2)c(/C=C/c2ccc(N(c3ccccc3)c3ccccc3)cc2)cc1-c1ccc2ccccc2c1)/c1ccc(N(c2ccccc2)c2ccccc2)cc1` displayed an emission maximum of 489 nm.

The data set is the same for the next values; noted with them: in O.
In turn, `CCn1c(-c2ccc(-c3ccc(-c4ccc(-c5n(CC)c6ccccc6[n+]5CC)cc4)cc3)cc2)[n+](CC)c2ccccc21` registered an emission maximum of 397 nm.

Take `O=C(O)C1=C/C(=C/C=[N+]2/c3cc(O)c(C[C@@H]4O[C@H](CO)[C@@H](O)C(O)[C@H]4O)cc3C[C@H]2C(=O)O)C[C@@H](C(=O)O)N1` (stereo partly specified): the emission maximum is 640 nm.

As for `Nc1nc2ccc(F)cc2[n+]([O-])n1`, the emission maximum was 526 nm.

In the case of `COc1ccc(OC)c(C2=C3C=CC(=[N+](C)C)C=C3[Si](C)(C)c3cc(N(C)C)ccc32)c1`, the emission maximum is listed as 665 nm.

The data set is the same for the next values; noted with them: in OCCO.
The compound `O=C(O)C1=C/C(=C/C=[N+]2/c3cc(O)c(C[C@@H]4O[C@H](CO)[C@@H](O)C(O)[C@H]4O)cc3C[C@H]2C(=O)O)C[C@@H](C(=O)O)N1` (stereo partly specified) returned an emission maximum of 607 nm.

Still in this data set, the particulars now being: in [2H]O[2H].
With `O=C(O)C1=C/C(=C/C=[N+]2/c3cc(O)c(C[C@@H]4O[C@H](CO)[C@@H](O)C(O)[C@H]4O)cc3C[C@H]2C(=O)O)C[C@@H](C(=O)O)N1` (stereo partly specified), the emission maximum came out at 640 nm.

The same data set, now with this note: in c1cc(-n2c3ccccc3c3ccccc32)nc(-n2c3ccccc3c3ccccc32)c1.
With `CC(C)(C)c1ccccc1N(c1ccccc1)c1ccc(S(=O)(=O)c2ccc(S(=O)(=O)c3ccc(N(c4ccccc4)c4ccccc4C(C)(C)C)cc3)cc2)cc1`, the emission maximum amounted to 465.06 nm.

The same data set, now with this note: in c1ccccc1.
With `O=c1oc2c(ccc3cc(O)ccc32)nc1-c1ccccc1`, the emission maximum was 487 nm.

Still in this data set, the particulars now being: in c1ccncc1.
In turn, `CCCCCCCC(=O)Oc1ccc2c3cccc4c(OC(=O)CCCCCCC)ccc(c5cccc1c52)c43` registered an emission maximum of 459.02 nm.
